Measurements reported in US20220162257A1, “3ALPHA, 5BETA-NEUROACTIVE STEROIDS FOR THE TREATMENT OF EPILEPSY AND SEIZURE DISEASES” (USTAV ORGANICKE CHEMIE A BIOCHEMIE AV CR, V. V. I., priority 2019, published 2022).
Structures can show the parent of a compound that is named as a salt.

Assays:
[1] = system: experimental seizures in animal models; conditions: cited from earlier work; for effect in experimental seizures: seizures elicited by pentylenetetrazol, pilocarpine, NMDA and kainic acid
[2] = system: PTZ-induced seizures in 12- and 25-day-old rats; experiment: PTZ-induced generalized tonic-clonic seizures in immature rats; format: in vivo, rat
Experimental: Anticonvulsant effect of compounds was evaluated in two models of epileptic seizures in immature rats (PTZ model and 6 Hz model). PTZ convulsions were tested in 12- and 25-day-old rats, 6 Hz-induced seizures in 15- and 25-day-old rats. Young adult rats (P60) were also used in either test. Day of birth was taken as P0. Experiments evaluating precognitive effect were performed in adult male rats of the Wistar and Long Evans strain (3 months old, b.w. 300-400 g). All animals were obtained from a breeding facility of Institute of Physiology CAS (certificate No. 1396/2014-MZE-17214) Animals were held in standard conditions (21±1° C., humidity 50-60%, light regime 12/12) with unrestricted access to food and water. All manipulations with animals were performed according to the https://nc3rs.org.uk/arrive-guidelines and to Czech Animal Protection Law 246/1992 Sb. And international directives (EU Directive 2010/63/EU for animals' experiments).
Two age groups of immature male Wistar rats were used in either experiment. In PTZ model P12 corresponding by a maturation of the brain to early postnatal human babies, i.e. to the period where children epileptic encephalopathy mostly resistant to present pharmacotherapy start to appear. The other group—P25 animals corresponds with school-age children. Generalized tonic-clonic seizures were elicited by a subcutaneous injection of PTZ in a dose of 100 mg/kg. The 6 Hz model was tested in P15 (at this age eyes are open and it is not necessary to surgically distract lids). Biphasic pulses with […] were applied transcorneally for 3 s by a constant current stimulator of Ugo Basile company. PTZ induced generalized seizures represent a model of human generalized tonic-clonic seizures, seizures elicited by 6 Hz stimulation are generally taken as a model of temporal (psychomotor, complex partial) seizures. Differences in latencies and seizure severity were evaluated by ANOVA with a subsequent pairwise comparison by Holm-Sidak test. Incidence of seizures were evaluated by Fischer exact test. Critical p value was set at p=0.05.
Anticonvulsant effect was studied in 12- and 25-day-old male Wistar rats. Steroid derivatives were administered at doses of 1, 5 and 10 mg/kg i.p. 20 min before the administration of PTZ (100 mg/kg s.c.).

[3] = system: PTZ-induced seizures in zebrafish (Danio rerio); experiment: pentetrazol (PTZ)-induced seizures in zebrafish larvae; format: in vivo; conditions: 7 dpf larvae, PTZ 5 mmol/L; for epileptiform locomotor activity in the dark phase/light test, sedation: doses of 1, 3 and 5 mg/kg; for locomotor activity epileptiform induced by PTZ (spontaneous locomotor activity, maximum velocity, angle turns): doses of 1, 3 and 5 mg/kg (1, 3 and 5 μmol/L in the source)
Experimental: Adults wild-type (strain AB) zebrafish (Danio rerio) were maintained at 28-29° C. on a light cycle of 14 h light:10h dark (lights on at 7 am; lights off at 9 pm) at ZeClinics animal facility (Barcelona). All procedures involving animals and their care were conducted accordingly to CEA-OH/9421/2 authorization from Government of Catalonia. Embryos obtained by pairwise mating were raised in E3 media at the controlled temperature of 28.5° C. until 7 days post-fertilization (dpf) when the experiments were performed.
The anticonvulsant activity of the claimed compounds on the nervous system of zebrafish (Danio rerio). This test is the modern alternative to tests in adult animals as Danio rerio is very versatile organism that has a number of physiological similarities to mammals, including humans (Expert Opin. Drug Metab. Toxicol. 2009, 5, 393). Steroidal compounds were tested in three concentrations (1, 3 and 5 μmol.L^−1) on 7 days post-fertilization (dpf) wild-type larvae. As a negative control, sibling larvae were incubated with DMSO 1%, which allows us to detect behavioral alterations of PTZ treated larvae. Seizures were induced by treatment of pentetrazol (PTZ) at the dose 5 mmol.L^−1. Commercially available anti-convulsant drug Topiramate was used as comparator. Results were analyzed with GraphPad Prism software and statistical significance is assessed by the One-way ANOVA statistical analysis followed by Tukey's multiple comparisons test. The zebrafish larvae locomotion and response to visual stimuli are traced and analyzed by the EthoVision XT 12 software and the DanioVision device from Noldus Information Technologies, Wageningen, The Netherlands.
This closed system consists of a camera placed above a chamber with circulating water and a temperature sensor that is set at 28° C. Individualized larvae in a 48-wells plate are placed in the chamber, which can provide different stimuli (light/dark environment, tapping, sound) controlled by the software. Prior to each experiment, larvae were left for 10 minutes in dark for acclimation, then predetermined series of alternating dark and light environment are presented to the larvae. The final experimental protocol is divided in three main part: first a 15 minutes step with light on, then a series of 5 short flashes of light to induce epileptic seizures and finally a 25 minutes dark/light alternating environments phase. Different sets of information can be extrapolated from the different phases: while the first step is useful to detect changes in the total larvae locomotion, the second part allows us to analyze the larval response to a seizure-inducing visual stimulus and measure the seizure characteristics: the maximum velocity and the number of angles turns (specific of seizure erratic movement). The final phase is useful to detect anomalies in larval movement and deviations from the stereotyped behavior (natural locomotor behavior of zebrafish is active in dark and immobile in light). The anticonvulsant effect of compounds was studied at doses of […] for the compound shown in Example 1, Example 2 and Example 3.

[4] = system: adults and children; conditions: clinical studies; cited from earlier work
[5] = both age groups (P12, P25), 5 and 10 mg/kg i.p.

With `C[C@H]1CC[C@H]2[C@@H]3CC[C@@H]4C[C@H](OC(=O)C5CCC(=O)N5)CC[C@]4(C)[C@H]3CC[C@]12C` (stereo partly shown) the melting point was 157 to 158 °C.

Work on `C/C=C1/CC[C@H]2[C@@H]3CC[C@@H]4C[C@H](OC(=O)C5CCC(=O)N5)CC[C@]4(C)[C@H]3CC[C@]12C` (stereo partly shown) yielded a melting point of 155 to 157 °C.

`C[C@@]12CCC[C@H]1[C@@H]1CC[C@@H]3C[C@H](OCCOC(=O)C4CCC(=O)N4)CC[C@]3(C)[C@H]1CC2` (stereo partly shown) showed a melting point of 110 to 111 °C.

For `C[C@@]12CCC[C@H]1[C@@H]1CC[C@@H]3C[C@H](OCCOC(=O)C4CCCC(=O)N4)CC[C@]3(C)[C@H]1CC2` (stereo partly shown), the melting point was 117 to 119 °C.

Work on `CC(=O)[C@H]1CC[C@H]2[C@@H]3CC[C@@H]4C[C@H](OC(=O)C5CCC(=O)N5)CC[C@]4(C)[C@H]3[C@H](O)C[C@]12C` (stereo partly shown) yielded a melting point of 183 to 185 °C.

`C[C@@]12CCC[C@H]1[C@@H]1CC[C@@H]3C[C@H](OC(=O)C4CCC(=O)N4)CC[C@]3(C)[C@H]1CC2` (stereo partly shown) showed a melting point of 136 to 137 °C.

With `C[C@]12CC[C@@H](OC(=O)C3CCC(=O)N3)C[C@H]1CC[C@@H]1[C@@H]2CC[C@]2(C)C(=O)CC[C@@H]12` (stereo partly shown) the melting point was 114 to 116 °C.

For `C[C@@]12CCC[C@H]1[C@@H]1CC[C@@H]3C[C@H](OC(=O)C4CCCC(=O)N4)CC[C@]3(C)[C@H]1CC2` (stereo partly shown), the melting point was 109 to 111 °C.

Work on `C[C@]12CC[C@@H](OC(=O)C3CCCC(=O)N3)C[C@H]1CC[C@@H]1[C@@H]2CC[C@]2(C)[C@@H](C#N)CC[C@@H]12` (stereo partly shown) yielded a melting point of 69 to 71 °C.

Work on `CC(=O)NCC(=O)O[C@@H]1CC[C@@]2(C)[C@H](CC[C@@H]3[C@@H]2CC[C@]2(C)[C@@H](C(C)=O)CC[C@@H]32)C1` yielded a melting point of 111 to 113 °C.

For `CC(=O)[C@H]1CC[C@H]2[C@@H]3CC[C@H]4C[C@H](O)CC[C@]4(C)[C@H]3CC[C@]12C` [ALLO, 20-oxo-5α-pregnan-3α-ol], the “frequency of seizures, mortality and cellular death” value ([1]; animal models of epilepsy) is listed as “deceases frequency of seizures, mortality and cellular death” and the “effect in experimental seizures” value [1] is listed as “significant effect”.

For `CC(=O)[C@H]1CC[C@H]2[C@@H]3CC[C@H]4C[C@@H](OC(=O)[C@@H]5CCC(=O)N5)CC[C@]4(C)[C@H]3CC[C@]12C` [Allopregnanolone (S)-5-oxopyrrolidin-2-carboxylate, reference compound], the “action against generalized tonic-clonic seizures” value ([2]; PTZ 100 mg/kg s.c., 12- and 25-day-old rats) was “only a moderate action”.

In the case of `CC(=O)[C@H]1CC[C@H]2[C@@H]3CC[C@@H]4C[C@H](OC(=O)C5CCCC(=O)N5)CC[C@]4(C)[C@H]3CC[C@]12C` (stereo partly drawn) [Example 2, (3R,5R,8R,9S,10S,13S,14S,17S)-17-Acetyl-10,13-dimethylhexadecahydro-1H-cyclopenta[a]phenantren-3-yl 6-oxopiperidine-2-carboxylate], the “epileptiform locomotor activity in the dark phase/light test, sedation” value [3] is reported as “decreased epileptiform locomotor activity in the dark phase/light test without causing sedation”, the “locomotor activity epileptiform induced by PTZ (spontaneous locomotor activity, maximum velocity, angle turns)” value [3] is reported as “significantly reduced the locomotor activity epileptiform induced by PTZ” and the “incidence of GTCS” value [2, 5] is reported as “suppressed significantly”. For the same compound, the seizure severity [2, 5] was “suppressed significantly”.

With `C[C@]12CC[C@@H](OC(=O)C3CCC(=O)N3)C[C@H]1CC[C@@H]1[C@@H]2CC[C@]2(C)[C@@H](C#N)CC[C@@H]12` (stereo partly drawn) [Example 3, (3R,5R,8R,9S,10S,13S,14S,17S)-17-Cyano-10,13-dimethylhexadecahydro-1H-cyclopenta[a]phenanthren-3-yl 5-oxopyrrolidine-2-carboxylate] the “epileptiform locomotor activity in the dark phase/light test, sedation” value [3] was “decreased epileptiform locomotor activity in the dark phase/light test without causing sedation”, the “locomotor activity epileptiform induced by PTZ (spontaneous locomotor activity, maximum velocity, angle turns)” value [3] was “significantly reduced the locomotor activity epileptiform induced by PTZ” and the “incidence of GTCS” value ([2]; P12 rats, 1, 5, 10 mg/kg i.p.) was “significantly affected only by the 5-mg/kg dose”. For the same compound, the “incidence of GTCS” value ([2]; P25 rats, 5 and 10 mg/kg i.p.) was “suppressed incidence of GTCS”.

In the case of `CC(=O)[C@H]1CC[C@H]2[C@@H]3CC[C@H]4C[C@](C)(O)CC[C@]4(C)[C@H]3CC[C@]12C` [Ganaxolone], the generation of seizures ([1]; rodents) is given as “able to prevent generation of seizures in rodents” and the tolerability [4] is given as “good tolerability in adults as well as children”.

With `CC(=O)[C@H]1CC[C@H]2[C@@H]3CCC4=C[C@@H](OC(=O)[C@@H]5CCCN5)CC[C@]4(C)[C@H]3CC[C@]12C` [PI-33, 3β-L-proline-progesterone-HCl, reference compound] the “incidence of generalized tonic-clonic seizures” value ([2]; 1 and 10 mg/kg doses) was “did not change incidence of generalized tonic-clonic seizures”.

For `CC(=O)[C@H]1CC[C@H]2[C@@H]3CCC4=CC(=O)CC[C@]4(C)[C@H]3CC[C@]12C` [PROG, pregn-4-en-3,20-dione], the “effect in experimental seizures” value [1] is listed as “significant effect”.
